{
  "source": "paper PMC9430770",
  "about": "(Microbiology Spectrum, 2022)",
  "key": {"[1]": {"system": "Candida albicans 103", "assay": "Checkerboard microdilution assay with fluconazole", "assay_type": "cell-based", "from_the_text": "Ta b l e S3. Interaction of fluconazole ( FLC) and BE probes against isolates of Candida albicans\nCompounds Molecular structure Individual action Interaction MIC(μg/ mL ) FICI Mode of\nMIC (μg /mL) FLC Compounds interaction"}, "[2]": {"system": "C. albicans eno1/eno1 mutant strain", "assay": "Galleria mellonella infection model, eno1/eno1 strain", "assay_type": "in vivo, Candida albicans", "details": "G. mellonella, 10 mg/kg", "description": "To assess whether Eno1 is a therapeutic target of BE, we constructed a homozygous deletion strain for the ENO1 gene (eno1/eno1). We then investigated the difference in the antifungal efficacy of BE on the infections caused by the parent strain SN152 and the eno1/eno1 strain in the Galleria mellonella infection model. We divided the G. mellonella into 5 groups, with 10 larvae in each group. All 10 larvae died after a 24-h infection with the SN152 strain, while only 3 larvae died after 24 h when infected with the eno1/eno1 strain; the remaining larvae died within 7 days. Compared with the group infected with the parent strain, the survival time of the group infected with the eno1/eno1 strain was longer (P < 0.01) (Fig. 4A). […] The survival rate of larvae in the BE (10 mg/kg of body weight)-treated, SN152 strain-infected group was extended by 30%, compared with that in the group infected with the SN152 strain but without antifungal drug treatment (P < 0.001) (Fig. 4B). […] All 10 larvae in the BE-treated group died within 6 days, and all 10 larvae without BE treatment were killed within 7 days (Fig. 4C). However, FLC (10 mg/kg) can extend the survival rate of larvae infected by the eno1/eno1 strain by 60% (P < 0.01) (Fig. 4D) compared with the group infected with the eno1/eno1 strain without antifungal drug treatment.\nFIG 4 Eno1 acts as a therapeutic target of BE. […] Each curve represents a group of 10 larvae (n =10) monitored daily for survival for up to 10 days after infection. […]\nVirulence testing of C. albicans was done in Galleria mellonella as described previously ([56]). […] After growth in YPD media overnight at 30°C and 200 rpm, C. albicans SN152 cells or eno1/eno1 mutant cells were washed with PBS 3 times and diluted to the desired concentration (1 × 10^7 cells/mL) determined by counting with a hemacytometer. […] The death of G. mellonella was assessed daily and analyzed statistically by the Kaplan-Meier method (log-rank test)."}, "[3]": {"target": "T1, CaEno1 (Candida albicans, UniProt P30575)", "T1 sequence (P30575 1-440)": "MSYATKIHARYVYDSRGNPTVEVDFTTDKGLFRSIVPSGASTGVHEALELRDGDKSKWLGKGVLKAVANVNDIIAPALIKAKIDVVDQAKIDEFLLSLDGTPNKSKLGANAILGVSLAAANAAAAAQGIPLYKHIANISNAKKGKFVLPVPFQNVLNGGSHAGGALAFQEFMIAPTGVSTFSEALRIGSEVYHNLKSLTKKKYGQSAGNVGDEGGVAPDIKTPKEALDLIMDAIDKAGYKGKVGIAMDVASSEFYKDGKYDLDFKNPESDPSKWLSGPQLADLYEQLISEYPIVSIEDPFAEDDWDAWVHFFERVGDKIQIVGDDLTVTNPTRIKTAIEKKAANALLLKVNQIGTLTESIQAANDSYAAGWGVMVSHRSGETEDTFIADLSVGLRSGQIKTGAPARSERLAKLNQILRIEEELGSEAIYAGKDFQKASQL", "details": "read-out: IC50 inhibiting enolase activity; CaEno1 30 nM, 2-PG 1 mM", "method": "Data are shown as the means ± standard deviations. […] Data are shown as the means ± standard deviations.\nEnolase activity was determined by direct spectrophotometric assay via measuring the increase of absorbance at 240 nm of phosphoenolpyruvate (PEP) as described previously with some modifications ([54]). Briefly, the reaction buffer (pH 7.0) containing 10 mM imidazole, 200 mM KCl, and 0.5 mM MgAc in a final reaction volume of 100 μL was mixed with Eno1 (a final concentration of 30 nM), followed by the mixture of 2-phosphoglycerate (2-PG) (Yuanye Biotech Shanghai) with a final concentration of 1 mM. The enolase activity of Eno1 was evaluated by measuring the increase of absorbance (OD240) at room temperature for 10 min. […] The well-known enolase inhibitor sodium fluoride (NaF; Sangon Biotech) was initiated from 5 mM and used as a control ([29]). Inhibition curves were fitted by nonlinear regression (four parameters) using the GraphPad Prism software."}, "[4]": {"target": "the molecule itself", "assay": "crystal structure; X-ray crystals of CaEno1 alone and of CaEno1 with 2-PG, sitting drop at 13°C, space group C2; four Eno1 chains (two dimers) in the asymmetric unit"}},
  "data": [
    {"molecule": "C#CCOc1cc(C2(C(F)(F)F)N=N2)ccc1COc1cc2oc(-c3ccccc3)cc(=O)c2c(O)c1N", "note": "[BE-1]", "values": [
      {"measurement": "Interaction MIC FLC", "setting": "[1]; MIC of FLC in combination with the compound", "value": "> 64", "unit": "µg/mL"},
      {"measurement": "Interaction MIC Compounds", "setting": "[1]; MIC of the compound in combination with FLC", "value": 1, "unit": "µg/mL"},
      {"measurement": "FICI", "setting": "[1]; combination with FLC", "value": 1.01},
      {"measurement": "Mode of interaction", "setting": "[1]; combination with FLC, FLC-resistant C. albicans", "value": "Indifference"},
      {"measurement": "Individual action MIC", "setting": "[1]; compound alone", "value": "> 64", "unit": "µg/mL"}
    ]},
    {"molecule": "OC(Cn1cncn1)(Cn1cncn1)c1ccc(F)cc1F", "note": "[FLC, fluconazole]", "values": [
      {"measurement": "survival rate of larvae extended versus infected group without drug treatment", "setting": "[2]", "value": 60, "unit": "%"}
    ]},
    {"molecule": "[F-].[Na+]", "note": "[NaF, sodium fluoride]", "values": [
      {"measurement": "IC50", "setting": "[3]", "value": "504 ± 7.1", "unit": "µM"}
    ]},
    {"molecule": "C. albicans Eno1 (enzyme, UniProt P30575 1-440, looked up, also called CaEno1; enolase; source: E. coli BL21(DE3), purified (Ni-NTA, Superdex 200 SEC)) MSYATKIHARYVYDSRGNPTVEVDFTTDKGLFRSIVPSGASTGVHEALELRDGDKSKWLGKGVLKAVANVNDIIAPALIKAKIDVVDQAKIDEFLLSLDGTPNKSKLGANAILGVSLAAANAAAAAQGIPLYKHIANISNAKKGKFVLPVPFQNVLNGGSHAGGALAFQEFMIAPTGVSTFSEALRIGSEVYHNLKSLTKKKYGQSAGNVGDEGGVAPDIKTPKEALDLIMDAIDKAGYKGKVGIAMDVASSEFYKDGKYDLDFKNPESDPSKWLSGPQLADLYEQLISEYPIVSIEDPFAEDDWDAWVHFFERVGDKIQIVGDDLTVTNPTRIKTAIEKKAANALLLKVNQIGTLTESIQAANDSYAAGWGVMVSHRSGETEDTFIADLSVGLRSGQIKTGAPARSERLAKLNQILRIEEELGSEAIYAGKDFQKASQL", "values": [
      {"measurement": "stoichiometry N", "setting": "[4]", "value": 2}
    ]}
  ]
}
